Assay results: US20100048575A1, “NOVEL TETRACYCLIC INHIBITORS OF CYSTEINE PROTEASES, THE PHARMACEUTICAL COMPOSITIONS THEREOF AND THEIR THERAPEUTIC APPLICATIONS” (priority 2006, published 2010)
pIC50: −log10 of the molar value.

What was measured:
Uch-L3 = biological target: T1, Uch-L3 (Homo sapiens, UniProt P15374); assay: UCH-L3 activity assay (Ub-AMC); type: biochemical; conditions: 400 nM Ub-AMC, 13 pM enzyme, 30 min pre-incubation, 60 min at 37° C., sigmoidal fit; read-out: Uch-L3 (inhibition of cysteine protease activity)
T1 sequence (P15374 1-230): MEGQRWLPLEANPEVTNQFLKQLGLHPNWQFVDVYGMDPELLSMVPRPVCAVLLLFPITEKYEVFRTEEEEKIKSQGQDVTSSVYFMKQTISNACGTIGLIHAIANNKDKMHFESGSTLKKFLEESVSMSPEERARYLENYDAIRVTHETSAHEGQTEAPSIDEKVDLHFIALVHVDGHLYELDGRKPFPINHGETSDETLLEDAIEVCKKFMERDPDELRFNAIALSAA
Procedure: Uch-L3 was diluted in USP buffer (50 mM Tris HCl; 0.5 mM EDTA; 5 mM DTT; 0.01% Triton X-100; Bovine Serum Albumin 0.05 mg.ml^−1 pH7.6). Compounds stocks (100 mM) were stored at −20° C. in DMSO. Compounds were tested at the following final concentrations: 100 μM; 33.3 μM; 11.1 μM; 3.7 μM; 1.23 μM; 412 nM; 137 nM; 45.7 nM, 15.2 nM; 5 nM.
Reactions were performed as duplicates in Black LJL 96 well plates (HE microplates; Molecular Devices; 20 μl final reaction volume). The substrate concentration for Uch-L3 was 400 nM Ub-AMC (Boston Biochem). The concentration of the enzyme (Uch-L3) in specificity assays was 13 pM. The concentrations were determined in order to perform specificity assays under initial velocities at fixed substrate concentration. Compounds were pre-incubated with enzymes for 30 minutes at 25° C. Reactions were initiated by addition of substrate to the plates containing the enzymes (+/−compounds) diluted in assay buffer.
Reactions were incubated for 60 minutes at 37° C. Reactions were stopped by adding acetic acid (100 mM final). Readings were performed on a Pherastar Fluorescent Reader (BMG). δ Emission 380 nm; 6 Excitation=460 nm. Data (mean values +/−standard deviation) were analyzed as % of control (no compound) and plotted as percentage versus the Log of the compound concentration using GraphPad (Prism). Data were fitted to a sigmoidal model (variable slope).

[1] = test system: HCT116 colon cancer cells; assay: HCT116 cell viability and proliferation assay (MTS); type: cell-based; conditions: Homo sapiens, HCT-116, 72 hours, mean of 3 independent experiments, read-out: HCT116 GI50 D3
Procedure: HCT116 colon cancer cells were obtained from ATCC (American Type Culture Collection), and maintained in Mc Coy's 5A medium containing 10% FBS, 3 mM glutamine and 1% penicillin/streptomycin. Cells were incubated at 37° C. in a humidified atmosphere containing 5% CO2.
Cell viability was assayed using the MTS technique in 96-well culture plates (CellTiter 96® Aqueous Non-Radioactive Cell Proliferation Assay, Promega) according to the manufacturer's instructions. MTS (3-(4,5-dimethylthiazol-2-yl)-5-(3-carboxymethoxyphenyl)-2-(4-sulfophenyl)-2H-tetrazolium) is a MTT-derived tetrazolium that is reduced in metabolically active cells into a soluble, cell-permeant formazan. The amount of formazan, detected by its absorbance at 492 nm is proportional to the number of living, metabolically active cells.
10^3 HCT116 cells were seeded per well. 24 hours later, the medium was changed and the cells treated in triplicate with the following concentrations of each compound: 10 μM-3.33 μM-1.11 μM-370 nM-123 nM-41 nM-14 nM and 5 nM. The compounds were diluted in 100% DMSO, whose final concentration on cells was kept at 0.5%.
Cells were incubated with the compounds for 72 hours, and their viability then assayed by the addition of MTS for 2 hours. Absorbance at 492 nm was measured directly from the 96-well culture plates. GI50 (Growth Inhibition 50) concentrations for each compound were calculated using a sigmoidal variable slope fit (Prism 4.0, Graphpad Softwares). Values represent mean of 3 independent experiments.

Structure (SMILES)	pIC50 (Uch-L3)	GI50 [1] [nM]
CON=C1c2ccccc2-c2nn3c(C)nnc3nc21 (mixture of isomers) [5a, 3-Methyl-1,2,3a,4,10-pentaaza-cyclopenta[b]fluoren-9-one O-methyl-oxime]	6.39	1400
C=CCON=C1c2ccccc2-c2nn3c(C)nnc3nc21 (mixture of isomers) [5b, 3-Methyl-1,2,3a,4,10-pentaaza-cyclopenta[b]fluoren-9-one O-allyl-oxime]	6.57	1640
C=CCON=C1c2ccccc2-c2nn3c(CCCC)nnc3nc21 (mixture of isomers) [5d, 3-Butyl-1,2,3a,4,10-pentaaza-cyclopenta[b]fluoren-9-one O-allyl-oxime]	6.60	1010
CCCCCCCCCCON=C1c2ccccc2-c2nn3nnnc3nc21 (mixture of isomers) [8a, 1,2,3,3a, 4,10-Hexaaza-cyclopenta[b]fluoren-9-one O-decyl-oxime]	5.70	398
COCCON=C1c2ccccc2-c2nn3nnnc3nc21 (mixture of isomers) [8b, 1,2,3,3a, 4,10-Hexaaza-cyclopenta[b]fluoren-9-one O-(2-methoxy-ethyl)-oxime]	7.32	273
c1ccc(OCCCON=C2c3ccccc3-c3nn4nnnc4nc32)cc1 (mixture of isomers) [8c, 1,2,3,3a,4,10-Hexaaza-cyclopenta[b]fluoren-9-one O-(3-phenoxy-propyl)-oxime]	6.92	265
CCc1nnc2nc3c(nn12)-c1ccccc1C3=NOC (mixture of isomers) [10b, 3-Ethyl-1,2,3a,4,10-pentaaza-cyclopenta[b]fluoren-9-one O-methyl-oxime]	–	3360
CCON=C1c2ccccc2-c2nn3c(CC)nnc3nc21 (mixture of isomers) [10d, 3-Ethyl-1,2,3a,4,10-pentaaza-cyclopenta[b]fluoren-9-one O-ethyl-oxime]	–	3930
C=CCON=C1c2ccccc2-c2nn3c(CC)nnc3nc21 (mixture of isomers) [10f, 3-Ethyl-1,2,3a,4,10-pentaaza-cyclopenta[b]fluoren-9-one O-allyl-oxime]	6.63	2100
CCc1nnc2nc3c(nn12)-c1ccccc1C3=NOCc1ccccc1 (mixture of isomers) [10h, 3-Ethyl-1,2,3a,4,10-pentaaza-cyclopenta[b]fluoren-9-one O-benzyl-oxime]	–	1910
C=CCON=C1c2ccccc2-c2nn3nnnc3nc21 (mixture of isomers) [compound 6, 1,2,3,3a,4,10-hexaaza-cyclopenta[b]fluoren-9-one O-allyl-oxime]	7.49	96
ON=C1c2ccccc2-c2nn3nnnc3nc21 (mixture of isomers) [compound 7, 1,2,3,3a,4,10-hexaaza-cyclopenta[b]fluoren-9-one oxime]	7.24	363
